Results: the NIST ThermoML archive (doi:10.1016/j.jct.2010.01.014)

Conditions: Crystal, Calculated from knudsen effusion weight loss

O=C1c2ccccc2-c2ccccc21 [9(9H)-fluorenone]
Conditions	vapor or sublimation pressure [kPa]
300.8 K	1.21e-05
303.6 K	1.69e-05
307.9 K	2.79e-05
309.8 K	3.65e-05
313 K	5.1e-05
313.1 K	5.09e-05
315.1 K	6.16e-05
323 K	0.000139
323.1 K	0.000143
324.5 K	0.000159
324.7 K	0.000167
328.4 K	0.000246
328.6 K	0.000245
330.9 K	0.000311
331.1 K	0.000319
331.9 K	0.000345
336.5 K	0.000528
336.6 K	0.00054
337.8 K	0.000596
337.9 K	0.000599
342.7 K	0.000937
342.8 K	0.000952

OC1c2ccccc2-c2ccccc21 [9H-fluoren-9-ol]
Conditions	vapor or sublimation pressure [kPa]
326.1 K	2.1e-05
327.5 K	2.44e-05
329.8 K	3.15e-05
331.3 K	3.74e-05
334.9 K	5.12e-05
340.9 K	0.000101
342.6 K	0.000115
343.6 K	0.000123
344.7 K	0.000144
346.1 K	0.000159
347.4 K	0.000186
351.2 K	0.000276
355.1 K	0.000402
358.7 K	0.00056
361.9 K	0.00074
366.1 K	0.00103

O=C1c2ccccc2C(=O)c2ccccc21 [9,10(9H,10H)-anthracenedione]
Conditions	vapor or sublimation pressure [kPa]
346 K	4.49e-06
359.9 K	2.09e-05
360.9 K	2.2e-05
362.7 K	2.52e-05
367.4 K	4.1e-05
369.9 K	5.42e-05
377.6 K	0.000119
379.2 K	0.000144
380.1 K	0.000149
385.4 K	0.000267
385.8 K	0.000263
386.8 K	0.000305
392.7 K	0.000493
392.8 K	0.000494
393.4 K	0.000519
399.2 K	0.000872
399.9 K	0.000948

ON=C1c2ccccc2-c2ccccc21 [9-oximinofluorene]
Conditions	vapor or sublimation pressure [kPa]
374.5 K	0.000175
376.6 K	0.000198
378.5 K	0.000231
382.6 K	0.000302
383.2 K	0.000317
386.2 K	0.000385
387.9 K	0.000428
389.9 K	0.000474
393.8 K	0.000613
395.2 K	0.000671
398.6 K	0.000816

c1ccc2c(c1)Nc1ccccc1O2 [phenoxazine]
Conditions	vapor or sublimation pressure [kPa]
329.7 K	2.81e-05
336.7 K	5.94e-05
340.9 K	0.000102
344.9 K	0.000164
345.1 K	0.000164
346.9 K	0.000196
348.2 K	0.00022
352.9 K	0.000345
353.1 K	0.000363
356.7 K	0.000483
360.9 K	0.000748
364.5 K	0.00107

c1ccc2c(c1)[nH]c1cnccc12 [9H-pyrido[3,4-b]indole]
Conditions	vapor or sublimation pressure [kPa]
352.8 K	5.7e-06
363.8 K	1.74e-05
367.9 K	2.56e-05
368.1 K	2.72e-05
370.3 K	3.37e-05
371.4 K	4.16e-05
371.5 K	4.16e-05
374.1 K	5.03e-05
374.4 K	5.45e-05
378.2 K	7.53e-05
381.8 K	0.000103
382 K	0.000107
382.2 K	0.000108
385.4 K	0.000141
385.9 K	0.000155
389.2 K	0.000218
389.4 K	0.000229

c1ccc2c(c1)Oc1ccccc1S2 [phenoxathiin]
Conditions	vapor or sublimation pressure [kPa]
304.2 K	8.61e-05
308.7 K	0.000143
311.4 K	0.000209
311.5 K	0.000207
311.9 K	0.000217
318.2 K	0.000453
323 K	0.000771
324.5 K	0.000927
